Common to all, as to assay: Antibacterial assay (Test A), microtitration MIC
The subject of assay [1] is MC 30603. The assay is classed as cell-based, M. catarrhalis. Conditions: Moraxella catarrhalis, read-out: MC 30603 MIC. The procedure:
(§1) Test A—Antibacterial Assays
(§2) The compounds of the present invention were tested against an assortment of Gram-negative and Gram-positive organisms using standard microtitration techniques (Cohen et. al., Antimicrob., 1985;28:766; Heifetz, et. al., Antimicrob., 1974;6:124).

The test system of assay [2] is HINF 30063. In kind it is cell-based, H. influenza. The conditions noted are these: Minimum Inhibitory Concentration, strain HINF 30063. The protocol:
as §1, §2

Assay [3] relates to SPNE 9912. In kind it is cell-based, S. pneumoniae. The conditions noted are these: Streptococcus pneumoniae, read-out: SPNE 9912 MIC. The protocol:
as §1, §2

For assay [4], the system named is SAUR 9213. In kind it is cell-based, S. aureus. The conditions noted are these: Staphylococcus aureus, read-out: SAUR 9213 MIC. The protocol: as §1, §2
Where [5] appears, read: Minimum Inhibitory Concentration, strain MC 30603.
[6] abbreviates: Minimum Inhibitory Concentration, strain SPNE 9912.
The mark [7] stands for this setting: Minimum Inhibitory Concentration, strain SAUR 9213.

In brackets after ≈: the same amount, converted by molar mass. Read-outs that look alike come from different tables or passages of the source.

For the compound `O=C1O[C@@H](CNC(=S)C(F)F)CN1c1ccc(C2CCC(O)[C@@H](O)C2)cc1` (stereo in doubt) [Example 15, N-{3-[4-(3,4-Dihydroxy-cyclohexyl)-phenyl]-2-oxo-oxazolidin-5-ylmethyl}-2,2-difluoro-thioacetamide], the MIC in assay [1] (setting [5]) worked out at 8 µg/mL (≈ 20 µM); in assay [2], 16 µg/mL (≈ 40 µM); in assay [3] (setting [6]), 1 µg/mL (≈ 2.5 µM); in assay [4] (setting [7]) it was 4 µg/mL (≈ 9.99 µM).

As to `O=C(NC[C@H]1CN(c2ccc(C3CCC(O)[C@@H](O)C3)cc2)C(=O)O1)C(Cl)Cl` (stereo in doubt) [Example 13, 2,2-Dichloro-N-{3-[4-(3,4-dihydroxy-cyclohexyl)-phenyl]-2-oxo-oxazolidin-5-ylmethyl}-acetamide], the MIC came to 8 µg/mL (≈ 19.2 µM) in assay [1] (setting [5]), 8 µg/mL (≈ 19.2 µM) in assay [2], 1 µg/mL (≈ 2.4 µM) in assay [3] (setting [6]) and 8 µg/mL (≈ 19.2 µM) in assay [4] (setting [7]).

Turning to `O=C(NC[C@H]1CN(c2ccc(C3CCC(O)[C@@H](O)C3)c(F)c2)C(=O)O1)C(F)F` (stereo in doubt) [Example 10, N-{3-[4-(3,4-Dihydroxy-cyclohexyl)-3-fluoro-phenyl]-2-oxo-oxazolidin-5-ylmethyl}-2,2-difluoro-acetamide], the MIC turned out to be 4 µg/mL (≈ 9.94 µM) in assay [1] (setting [5]), 8 µg/mL (≈ 19.9 µM) in assay [2], 1 µg/mL (≈ 2.49 µM) in assay [3] (setting [6]) and 4 µg/mL (≈ 9.94 µM) in assay [4] (setting [7]).

With `CCC(=O)NC[C@H]1CN(c2ccc(C3CCC(O)[C@@H](O)C3)c(F)c2)C(=O)O1` (stereo in doubt) [Example 8, N-{3-[4-(3,4-Dihydroxy-cyclohexyl)-3-fluoro-phenyl]-2-oxo-oxazolidin-5-ylmethyl}-propionamide], the MIC in assay [1] (setting [5]) amounted to 8 µg/mL (≈ 21 µM); in assay [2], 8 µg/mL (≈ 21 µM); in assay [3] (setting [6]), 2 µg/mL (≈ 5.26 µM); in assay [4] (setting [7]) it was 8 µg/mL (≈ 21 µM).

On to `CC(=O)NC[C@H]1CN(c2ccc(C3CCC(O)CC3)c(F)c2)C(=O)O1` (stereo in doubt) [Example 16, N-{3-[3-Fluoro-4-(4-hydroxy-cyclohexyl)-phenyl]-2-oxo-oxazolidin-5-ylmethyl}-acetamide], for which the MIC in assay [1] (setting [5]) amounted to 4 µg/mL (≈ 11.4 µM); in assay [2] it was 8 µg/mL (≈ 22.8 µM); in assay [3] (setting [6]), 1 µg/mL (≈ 2.85 µM); in assay [4] (setting [7]), 2 µg/mL (≈ 5.71 µM).

Regarding `CC(=O)NC[C@H]1CN(c2ccc(C3CC[C@@H](O)[C@@H](O)C3)cc2)C(=O)O1` (single isomer, unassigned) [Example 12, N-{3-[4-(3,4-Dihydroxy-cyclohexyl)-phenyl]-2-oxo-oxazolidin-5-ylmethyl}-acetamide], the MIC in assay [1] (setting [5]) was determined as 16 µg/mL (≈ 45.9 µM); in assay [2], 16 µg/mL (≈ 45.9 µM); in assay [3] (setting [6]), 4 µg/mL (≈ 11.5 µM); in assay [4] (setting [7]), 16 µg/mL (≈ 45.9 µM).

`CC(=O)NC[C@H]1CN(c2ccc(C3CCC(=NO)CC3)c(F)c2)C(=O)O1` (stereo partly shown) [Example 21, N-{3-[3-Fluoro-4-(4-hydroxyimino-cyclohexyl)-phenyl]-2-oxo-oxazolidin-5-ylmethyl}-acetamide]: the MIC in assay [1] (setting [5]) stood at 8 µg/mL (≈ 22 µM); in assay [2], 16 µg/mL (≈ 44 µM); in assay [3] (setting [6]), 0.5 µg/mL (≈ 1.38 µM); in assay [4] (setting [7]) it was 1 µg/mL (≈ 2.75 µM).

Regarding `CCC(=O)NC[C@H]1CN(c2ccc(C3CCC(O)C(F)C3)c(F)c2)C(=O)O1` (single isomer, unassigned) [Example 27, N-{3-[3-Fluoro-4-(3-fluoro-4-hydroxy-cyclohexyl)-phenyl]-2-oxo-oxazolidin-5-ylmethyl}-propionamide], the MIC in assay [1] (setting [5]) worked out at 2 µg/mL (≈ 5.23 µM); in assay [2] it was 8 µg/mL (≈ 20.9 µM); in assay [3] (setting [6]), 0.25 µg/mL (≈ 0.654 µM); in assay [4] (setting [7]), 2 µg/mL (≈ 5.23 µM).

For the compound `O=C1O[C@@H](CNC(=S)C(F)F)CN1c1ccc(C2CCC(O)C(F)C2)c(F)c1` (single isomer, unassigned) [Example 28, 2,2-Difluoro-N-{3-[3-fluoro-4-(3-fluoro-4-hydroxy-cyclohexyl)-phenyl]-2-oxo-oxazolidin-5-ylmethyl}-thioacetamide], the MIC stood at 2 µg/mL (≈ 4.76 µM) in assay [1] (setting [5]), 32 µg/mL (≈ 76.1 µM) in assay [2], 0.5 µg/mL (≈ 1.19 µM) in assay [3] (setting [6]) and 1 µg/mL (≈ 2.38 µM) in assay [4] (setting [7]).

Consider `O=C1O[C@@H](Cn2ccnn2)CN1c1ccc(N2CC[C@@H](O)[C@@H](O)C2)c(F)c1` (stereo in doubt) [Example 5, 3-[4-(3,4-Dihydroxy-piperidin-1-yl)-3-fluoro-phenyl]-5-[1,2,3]triazol-1-ylmethyl-oxazolidin-2-one], for which the MIC in assay [1] (setting [5]) came out at 16 µg/mL (≈ 42.4 µM); in assay [2] it was 32 µg/mL (≈ 84.8 µM); in assay [3] (setting [6]), 1 µg/mL (≈ 2.65 µM); in assay [4] (setting [7]), 4 µg/mL (≈ 10.6 µM).

On to `CC(=O)NC[C@H]1CN(c2ccc(N3CC[C@@H](O)[C@@H](O)C3)c(F)c2)C(=O)O1` (stereo in doubt) [Example 1, N-{3-[4-(3,4-Dihydroxy-piperidin-1-yl)-3-fluoro-phenyl]-2-oxo-oxazolidin-5-ylmethyl}-acetamide], for which the MIC in assay [1] stood at 8 µg/mL (≈ 21.8 µM); in assay [2], 32 µg/mL (≈ 87.1 µM); in assay [3], 2 µg/mL (≈ 5.44 µM); in assay [4], 8 µg/mL (≈ 21.8 µM).

For `O=C(NC[C@H]1CN(c2ccc(C3CCC(O)[C@@H](O)C3)cc2)C(=O)O1)C(F)F` (stereo in doubt) [Example 14, N-{3-[4-(3,4-Dihydroxy-cyclohexyl)-phenyl]-2-oxo-oxazolidin-5-ylmethyl}-2,2-difluoro-acetamide], the MIC in assay [1] (setting [5]) was determined as 16 µg/mL (≈ 41.6 µM); in assay [2] it was 16 µg/mL (≈ 41.6 µM); in assay [3] (setting [6]), 2 µg/mL (≈ 5.2 µM); in assay [4] (setting [7]) it was 8 µg/mL (≈ 20.8 µM).

For the compound `CC(=O)NC[C@H]1CN(c2ccc(C3CCC(=O)CC3)c(F)c2)C(=O)O1` [Example 20, N-{3-[3-Fluoro-4-(4-oxo-cyclohexyl)-phenyl]-2-oxo-oxazolidin-5-ylmethyl}-acetamide], the MIC is 8 µg/mL (≈ 23 µM) in assay [1] (setting [5]), 16 µg/mL (≈ 45.9 µM) in assay [2], 0.5 µg/mL (≈ 1.44 µM) in assay [3] (setting [6]) and 2 µg/mL (≈ 5.74 µM) in assay [4] (setting [7]).

In the case of `O=C(NC[C@H]1CN(c2ccc(C3CCC(O)[C@@H](O)C3)c(F)c2)C(=O)O1)C(Cl)Cl` (stereo in doubt) [Example 9, 2,2-Dichloro-N-{3-[4-(3,4-dihydroxy-cyclohexyl)-3-fluoro-phenyl]-2-oxo-oxazolidin-5-ylmethyl}-acetamide], the MIC turned out to be 4 µg/mL (≈ 9.19 µM) in assay [1] (setting [5]), 4 µg/mL (≈ 9.19 µM) in assay [2], 1 µg/mL (≈ 2.3 µM) in assay [3] (setting [6]) and 4 µg/mL (≈ 9.19 µM) in assay [4] (setting [7]).

On to `CCC(=O)NC[C@H]1CN(c2ccc(C3CCC(O)CC3)c(F)c2)C(=O)O1` (stereo in doubt) [Example 17, N-{3-[3-Fluoro-4-(4-hydroxy-cyclohexyl)-phenyl]-2-oxo-oxazolidin-5-ylmethyl}-propionamide], for which the MIC in assay [1] (setting [5]) turned out to be 4 µg/mL (≈ 11 µM); in assay [2], 4 µg/mL (≈ 11 µM); in assay [3] (setting [6]), 1 µg/mL (≈ 2.74 µM); in assay [4] (setting [7]) it was 2 µg/mL (≈ 5.49 µM).

With `CC(=O)NC[C@H]1CN(c2ccc(N3CCC(=O)[C@@H](O)C3)c(F)c2)C(=O)O1` [Example 2, N-{3-[3-Fluoro-4-(3-hydroxy-4-oxo-piperidin-1-yl)-phenyl]-2-oxo-oxazolidin-5-ylmethyl}-acetamide], the MIC came to 8 µg/mL (≈ 21.9 µM) in assay [1] (setting [5]), 16 µg/mL (≈ 43.8 µM) in assay [2], 1 µg/mL (≈ 2.74 µM) in assay [3] (setting [6]) and 4 µg/mL (≈ 10.9 µM) in assay [4] (setting [7]).

Turning to `NC(=O)[C@H]1CN(c2ccc(C3CCC(=O)CC3)c(F)c2)C(=O)O1` [Example 24, 3-[3-Fluoro-4-(4-oxo-cyclohexyl)-phenyl]-2-oxo-oxazolidine-5-carboxylic acid amide], the MIC stood at 32 µg/mL (≈ 99.9 µM) in assay [1] (setting [5]), 32 µg/mL (≈ 99.9 µM) in assay [2], 2 µg/mL (≈ 6.24 µM) in assay [3] (setting [6]) and 1 µg/mL (≈ 3.12 µM) in assay [4] (setting [7]).

On to `CC(=O)NC[C@H]1CN(c2ccc(C3CCC(O)C(F)C3)c(F)c2)C(=O)O1` (single isomer, unassigned) [Example 26, N-{3-[3-Fluoro-4-(3-fluoro-4-hydroxy-cyclohexyl)-phenyl]-2-oxo-oxazolidin-5-ylmethyl}-acetamide], for which the MIC worked out at 8 µg/mL (≈ 21.7 µM) in assay [1] (setting [5]), 16 µg/mL (≈ 43.4 µM) in assay [2], 0.5 µg/mL (≈ 1.36 µM) in assay [3] (setting [6]) and 2 µg/mL (≈ 5.43 µM) in assay [4] (setting [7]).

For `O=C1O[C@@H](CNC(=S)C(F)F)CN1c1ccc(C2CCC(O)CC2)c(F)c1` (stereo partly shown) [Example 19, 2,2-Difluoro-N-{3-[3-fluoro-4-(4-hydroxy-cyclohexyl)-phenyl]-2-oxo-oxazolidin-5-ylmethyl}-thioacetamide], the MIC was found to be 2 µg/mL (≈ 4.97 µM) in assay [1] (setting [5]), 8 µg/mL (≈ 19.9 µM) in assay [2], 0.5 µg/mL (≈ 1.24 µM) in assay [3] (setting [6]) and 2 µg/mL (≈ 4.97 µM) in assay [4] (setting [7]).

In the case of `O=C(NC[C@H]1CN(c2ccc(C3CCC(O)CC3)c(F)c2)C(=O)O1)C(F)F` (stereo in doubt) [Example 18, 2,2-Difluoro-N-{3-[3-fluoro-4-(4-hydroxy-cyclohexyl)-phenyl]-2-oxo-oxazolidin-5-ylmethyl}-acetamide], the MIC in assay [1] (setting [5]) was 4 µg/mL (≈ 10.4 µM); in assay [2], 8 µg/mL (≈ 20.7 µM); in assay [3] (setting [6]) it was 0.5 µg/mL (≈ 1.29 µM); in assay [4] (setting [7]) it was 2 µg/mL (≈ 5.18 µM).

On to `O=C1O[C@@H](CNC(=S)C(F)F)CN1c1ccc(C2CCC(O)[C@@H](O)C2)c(F)c1` (stereo in doubt) [Example 11, N-{3-[4-(3,4-Dihydroxy-cyclohexyl)-3-fluoro-phenyl]-2-oxo-oxazolidin-5-ylmethyl}-2,2-difluoro-thioacetamide], for which the MIC in assay [1] (setting [5]) is 4 µg/mL (≈ 9.56 µM); in assay [2], 8 µg/mL (≈ 19.1 µM); in assay [3] (setting [6]) it was 0.5 µg/mL (≈ 1.19 µM); in assay [4] (setting [7]), 1 µg/mL (≈ 2.39 µM).

In the case of `CON=C1CCN(c2ccc(N3CC(CNC(C)=O)OC3=O)cc2F)CC1O` (stereo not shown) [Example 4, N-{3-[3-Fluoro-4-(3-hydroxy-4-methoxyimino-piperidin-1-yl)-phenyl]-2-oxo-oxazolidin-5-ylmethyl}-acetamide], the MIC came out at 32 µg/mL (≈ 81.1 µM) in assay [1] (setting [5]), 64 µg/mL (≈ 162 µM) in assay [2], 2 µg/mL (≈ 5.07 µM) in assay [3] (setting [6]) and 8 µg/mL (≈ 20.3 µM) in assay [4] (setting [7]).

Values taken from patent US20050065187A1, “Novel antimicrobial aryloxazolidinone compounds” (priority 2003, published 2005).
